Results taken from patent US20260199323A1, “LIGAND COMPOUNDS FOR E3 UBIQUITIN LIGASE, PROTEIN DEGRADERS DEVELOPED ON BASIS OF LIGAND COMPOUNDS, AND USES THEREOF” (GLUETACS THERAPEUTICS (SHANGHAI) CO., LTD., priority 2021, published 2026).

Key:
[1] = tested on: Mino; assay: CCK-8 tumor cell proliferation, Mino; assay type: cell-based, Human; details: for IC50: Homo sapiens, Table 18, FAK inhibitor based, Mino, read-out: IC50 inhibiting proliferation of tumor cells, Mino
Procedure: (§1) The tumor cells used herein were cultured in a cell culture medium listed in table 4 at 37° C. in an incubator with 5% CO2. Prior to experimentation, all cells used were correctly identified by STR profiling, and tested negative for mycoplasma through routine screenings.
(§2) IC50 values of the compounds of the present disclosure (including the compounds in Tables 1 and 3, and compounds of examples) were measured using the Meilun Cell Counting Kit-8 kit from Dalian Meilun Biotech Co., Ltd. Assay details are as follows: tumor cells were seeded in a 96-well plate at a density listed in Table 5. After 24 h, 100 μL of the inoculated cells were treated with 0.5 μL of the compounds of the present disclosure (including the compounds in Tables 1 and 3, and compounds of examples) at 10 different successively decreasing concentrations (starting at the highest concentration of 10 μM; 5-fold serial dilutions). After the cells were treated with the compounds of the present disclosure for a period of time, the cell viability detection reagent was added to the culture medium for cell viability assessment according to the instructions provided with the CCK-8 kit. […] The growth inhibition of the compounds of the present disclosure on cells was plotted by Prism Graphpad software, and the IC50 values of the compounds of the present disclosure were calculated therefrom.

[2] = tested on: SW620; assay: CCK-8 tumor cell proliferation, SW620; assay type: cell-based, Human; details: Homo sapiens, SW-620; Table 18, FAK inhibitor based; SW620; read-out: IC50 inhibiting proliferation of tumor cells, SW620
Procedure: as §1, §2

[3] = tested on: PC-9; assay: CCK-8 tumor cell proliferation, PC-9; assay type: cell-based, Human; details: Homo sapiens; Table 18, FAK inhibitor based; PC-9; read-out: IC50 inhibiting proliferation of tumor cells, PC-9
Procedure: The tumor cells used herein were cultured in a cell culture medium listed in table 4 at 37° C. in an incubator with 5% CO2.
as §2, with “After” for “IC50 values of the compounds of the present disclosure (including the compounds in Tables 1 and 3, and compounds of examples) were measured using the Meilun Cell Counting Kit-8 kit from Dalian Meilun Biotech Co., Ltd. Assay details are as follows: tumor cells were seeded in a 96-well plate at a density listed in Table 5. After”

[4] = tested on: CCRF-CEM; assay: CCK-8 tumor cell proliferation, CCRF-CEM; assay type: cell-based, Human; set-up: IC50 for inhibiting the proliferation of tumor cells, CCRF-CEM: scale not given here; details: for IC50 for inhibiting the proliferation of tumor cells, CCRF-CEM: 96 h; for IC50: Homo sapiens, Table 18, FAK inhibitor based, CCRF-CEM, read-out: IC50 inhibiting proliferation of tumor cells, CCRF-CEM
Procedure: as §1, §2

[5] = tested on: Kasumi-1; assay: CCK-8 tumor cell proliferation, Kasumi-1; assay type: cell-based, Human; details: Table 16, designed based on BET inhibitors; 72 h
Procedure: as §1, §2

[6] = tested on: SR; assay: CCK-8 tumor cell proliferation, SR; assay type: cell-based, Human; details: for IC50: Homo sapiens, Table 18, FAK inhibitor based, SR, read-out: IC50 inhibiting proliferation of tumor cells, SR
Procedure: as §1, §2

[7] = tested on: MM.1S; assay: CCK-8 tumor cell proliferation, MM.1S; assay type: cell-based; details: for IC50 for inhibiting the proliferation of tumor cells, MM.1S: 72 h; for IC50: Homo sapiens, MM1.S, Table 18, FAK inhibitor based, MM.1S, read-out: IC50 inhibiting proliferation of tumor cells, MM.1S
Procedure: as §1, §2

[8] = tested on: MDA-MB-231; assay: CCK-8 tumor cell proliferation, MDA-MB-231; assay type: cell-based, Human; set-up: IC50 for inhibiting the proliferation of tumor cells, MDA-MB-231: scale not given here; details: for IC50: Homo sapiens, Table 18, FAK inhibitor based, MDA-MB-231, read-out: IC50 inhibiting proliferation of tumor cells, MDA-MB-231
Procedure: as §1, §2

[9] = tested on: CAL-62; assay: CCK-8 tumor cell proliferation, CAL-62; assay type: cell-based, Human; details: Homo sapiens; Table 18, FAK inhibitor based; CAL-62; read-out: IC50 inhibiting proliferation of tumor cells, CAL-62
Procedure: as §1, §2

[10] = Table 7, designed based on BTK inhibitors

SMILES	IC50 [1] [nM]	IC50 [2] [nM]	IC50 [3] [nM]	IC50 [9] [nM]	IC50 [8] [nM]	IC50 [7] [nM]	other results
CNC(=O)c1ccc(Nc2ncc(C(F)(F)F)c(NCc3nccnc3N(C)S(C)(=O)=O)n2)cc1 [Defactinib, reference compound]	500 to 1000	1000 to 5000	1000 to 5000				
Cc1sc2c(c1C)C(c1ccc(Cl)cc1)=N[C@@H](CC(=O)N1CCN(Cc3ccc4c(c3)CN(C3CCC(=O)NC3=O)C4=O)CC1)c1nnc(C)n1-2 (stereo partly drawn) [GT-02967, 3-(5-((4-(2-((S)-4-(4-chlorophenyl)-2,3,9-trimethyl-6H-thieno[3,2-f][1,2,4]triazolo[4,3-a][1,4]diazepin-6-yl)acetyl)piperazin-1-yl)methyl)-1-oxoisoindolin-2-yl)piperidine-2,6-dione]							IC50 for inhibiting the proliferation of tumor cells, CCRF-CEM ([4]; Table 16, designed based on BET inhibitors): A+; IC50 for inhibiting the proliferation of tumor cells, Kasumi-1 [5]: A+
CC(C)(C)c1cnc(CSc2cnc(NC(=O)C3CCN(Cc4ccc5c(c4)CN(C4CCC(=O)NC4=O)C5=O)CC3)s2)o1 (centres unmarked) [GT-03242, N-(5-(((5-(tert-butyl)oxazol-2-yl)methyl)thio)thiazol-2-yl)-1-((2-(2,6-dioxopiperidin-3-yl)-1-oxoisoindolin-5-yl)methyl)piperidine-4-carboxamide]							IC50 for inhibiting the proliferation of tumor cells, SR ([6]; Table 12, designed based on CDK9 inhibitors, 72 h): A+; IC50 for inhibiting the proliferation of tumor cells, MM.1S ([7]; Table 12, designed based on CDK9 inhibitors): A+
Nc1ncnc2c1c(-c1ccc(Oc3ccccc3)cc1)nn2C1CCN(Cc2cc3c(cc2F)C(=O)N(C2CCC(=O)NC2=O)C3)CC1 (centres unmarked) [GT-03605, 3-(5-((4-(4-amino-3-(4-phenoxyphenyl)-1H-pyrazolo[3,4-d]pyrimidin-1-yl)piperidin-1-yl)methyl)-6-fluoro-1-oxoisoindolin-2-yl)piperidine-2,6-dione]							IC50 for inhibiting the proliferation of tumor cells, CCRF-CEM [4, 10]: A+; IC50 for inhibiting the proliferation of tumor cells, MM.1S [7, 10]: A+; IC50 for inhibiting the proliferation of tumor cells, MDA-MB-231 ([8]; Table 7, designed based on BTK inhibitors, 96 h): A+
CN(c1nccnc1CNc1nc(Nc2ccc(N3CCN(Cc4ccc5c(c4)CN(C4CCC(=O)NC4=O)C5=O)CC3)cc2)ncc1C(F)(F)F)S(C)(=O)=O (centres unmarked) [GT-03672, N-(3-(((2-((4-(4-((2-(2,6-dioxopiperidin-3-yl)-1-oxoisoindolin-5-yl)methyl)piperazin-1-yl)phenyl)amino)-5-(trifluoromethyl)pyrimidin-4-yl)amino)methyl)pyrazin-2-yl)-N-methylmethanesulfonamide]	500 to 1000	1000 to 5000	1000 to 5000	500 to 1000	500 to 1000		IC50 [6]: 500 to 1000 nM
CNC(=O)c1ccccc1Nc1cc(Nc2ccc(N3CCC(N(C)Cc4ccc5c(c4)CN(C4CCC(=O)NC4=O)C5=O)CC3)cc2OC)ncc1C(F)(F)F (centres unmarked) [GT-03679, 2-((2-((4-(4-(((2-(2,6-dioxopiperidin-3-yl)-1-oxoisoindolin-5-yl)methyl)(methyl)amino)piperidin-1-yl)-2-methoxyphenyl)amino)-5-(trifluoromethyl)pyridin-4-yl)amino)-N-methylbenzamide]		100 to 500		50 to 100	< 50	100 to 500	IC50 [4]: 500 to 1000 nM
NC(=O)c1ccc(C2CCN(Cc3ccc4c(c3)CN(C3CCC(=O)NC3=O)C4=O)CC2)nc1-c1ccc(Oc2ccccc2)cc1 (centres unmarked) [GT-03693, 6-(1-((2-(2,6-dioxopiperidin-3-yl)-1-oxoisoindolin-5-yl)methyl)piperidin-4-yl)-2-(4-phenoxyphenyl)nicotinamide]							IC50 for inhibiting the proliferation of tumor cells, Mino ([1]; Table 7, designed based on BTK inhibitors, 72 h): A+; IC50 for inhibiting the proliferation of tumor cells, CCRF-CEM [4, 10]: A+; IC50 for inhibiting the proliferation of tumor cells, MM.1S [7, 10]: A+
CNC(=O)c1ccccc1Nc1cc(Nc2ccc(N3CCN(Cc4ccc5c(c4F)CN(C4CCC(=O)NC4=O)C5=O)CC3)cc2OC)ncc1C(F)(F)F (centres unmarked) [GT-03712, 2-((2-((4-(4-((2-(2,6-dioxopiperidin-3-yl)-4-fluoro-1-oxoisoindolin-5-yl)methyl)piperazin-1-yl)-2-methoxyphenyl)amino)-5-(trifluoromethyl)pyridin-4-yl)amino)-N-methylbenzamide]	100 to 500	< 50	1000 to 5000		< 50		
CNC(=O)c1ccccc1Nc1cc(Nc2ccc(N3CCC(N(C)Cc4ccc5c(c4F)CN(C4CCC(=O)NC4=O)C5=O)CC3)cc2OC)ncc1C(F)(F)F (centres unmarked) [GT-03728, 2-((2-((4-(4-(((2-(2,6-dioxopiperidin-3-yl)-4-fluoro-1-oxoisoindolin-5-yl)methyl)(methyl)amino)piperidin-1-yl)-2-methoxyphenyl)amino)-5-(trifluoromethyl)pyridin-4-yl)amino)-N-methylbenzamide]	1000 to 5000	100 to 500	1000 to 5000	50 to 100	< 50		IC50 [6]: < 50 nM
CNC(=O)c1ccccc1Nc1cc(Nc2ccc(N3CCC(N(C)Cc4ccc5c(c4)C(=O)N(C4CCC(=O)NC4=O)C5=O)CC3)cc2OC)ncc1C(F)(F)F (centres unmarked) [GT-03732, 2-((2-((4-(4-(((2-(2,6-dioxopiperidin-3-yl)-1,3-dioxoisoindolin-5-yl)methyl)(methyl)amino)piperidin-1-yl)-2-methoxyphenyl)amino)-5-(trifluoromethyl)pyridin-4-yl)amino)-N-methylbenzamide]		1000 to 5000	50 to 100				IC50 [6]: 100 to 500 nM
CN(c1cccc(CNc2nc(Nc3ccc(C4CCN(Cc5ccc6c(c5)CN(C5CCC(=O)NC5=O)C6=O)CC4)cc3)ncc2C(F)(F)F)c1)S(C)(=O)=O (centres unmarked) [GT-03742, N-(3-(((2-((4-(1-((2-(2,6-dioxopiperidin-3-yl)-1-oxoisoindolin-5-yl)methyl)piperidin-4-yl)phenyl)amino)-5-(trifluoromethyl)pyrimidin-4-yl)amino)methyl)phenyl)-N-methylmethanesulfonamide]				1000 to 5000	1000 to 5000	1000 to 5000	
CS(=O)(=O)c1cccc(CNc2nc(Nc3ccc(N4CCN(Cc5ccc6c(c5)CN(C5CCC(=O)NC5=O)C6=O)CC4)cc3)ncc2C(F)(F)F)c1 (centres unmarked) [GT-03792, 3-(5-((4-(4-((4-((3-(methylsulfonyl)benzyl)amino)-5-(trifluoromethyl)pyrimidin-2-yl)amino)phenyl)piperazin-1-yl)methyl)-1-oxoisoindolin-2-yl)piperidine-2,6-dione]	100 to 500	< 50	1000 to 5000	< 50	< 50	< 50	IC50 [4]: < 50 nM
CS(=O)(=O)c1cccc(CNc2nc(Nc3ccc(N4CCN(Cc5ccc6c(c5F)CN(C5CCC(=O)NC5=O)C6=O)CC4)cc3)ncc2C(F)(F)F)c1 (centres unmarked) [GT-03817, 3-(4-fluoro-5-((4-(4-((4-((3-(methylsulfonyl)benzyl)amino)-5-(trifluoromethyl)pyrimidin-2-yl)amino)phenyl)piperazin-1-yl)methyl)-1-oxoisoindolin-2-yl)piperidine-2,6-dione]	50 to 100	< 50		< 50	< 50	< 50	IC50 [4]: < 50 nM
CS(=O)(=O)c1cccc(CNc2nc(Nc3ccc(N4CCN(Cc5cc6c(cc5F)C(=O)N(C5CCC(=O)NC5=O)C6)CC4)cc3)ncc2C(F)(F)F)c1 (centres unmarked) [GT-03818, 3-(6-fluoro-5-((4-(4-((4-((3-(methylsulfonyl)benzyl)amino)-5-(trifluoromethyl)pyrimidin-2-yl)amino)phenyl)piperazin-1-yl)methyl)-1-oxoisoindolin-2-yl)piperidine-2,6-dione]	< 50	< 50		< 50	< 50	< 50	IC50 [4]: < 50 nM
